Measured values as given in US9987276B2 (Celgene CAR LLC, priority 2008, dated 2018).
Read-outs that look alike come from different tables or passages of the source.

Legend:
EGFR-WT = EGFR-WT (Homo sapiens (Human), UniProt P00533); assay: Omnia assay for potency assessment against EGFR (WT)
BTK = BTK (Homo sapiens (Human), UniProt Q06187); assay: Omnia assay for potency assessment against BTK; format: biochemical; details: [BTK]=5 nM, Omnia assay; read-out: BTK Inhibition (IC50)
Protocol: The modified BTK-optimized reagent conditions for the above protocol are:
[BTK]=5 nM, [ATP]=[…], [Y5-Sox]=[…] (ATP KMapp˜[…]).

[1] = read-out: EGFR (wild type inhibition), EGFR wild type

BTK, sequence (Q06187 whole entry): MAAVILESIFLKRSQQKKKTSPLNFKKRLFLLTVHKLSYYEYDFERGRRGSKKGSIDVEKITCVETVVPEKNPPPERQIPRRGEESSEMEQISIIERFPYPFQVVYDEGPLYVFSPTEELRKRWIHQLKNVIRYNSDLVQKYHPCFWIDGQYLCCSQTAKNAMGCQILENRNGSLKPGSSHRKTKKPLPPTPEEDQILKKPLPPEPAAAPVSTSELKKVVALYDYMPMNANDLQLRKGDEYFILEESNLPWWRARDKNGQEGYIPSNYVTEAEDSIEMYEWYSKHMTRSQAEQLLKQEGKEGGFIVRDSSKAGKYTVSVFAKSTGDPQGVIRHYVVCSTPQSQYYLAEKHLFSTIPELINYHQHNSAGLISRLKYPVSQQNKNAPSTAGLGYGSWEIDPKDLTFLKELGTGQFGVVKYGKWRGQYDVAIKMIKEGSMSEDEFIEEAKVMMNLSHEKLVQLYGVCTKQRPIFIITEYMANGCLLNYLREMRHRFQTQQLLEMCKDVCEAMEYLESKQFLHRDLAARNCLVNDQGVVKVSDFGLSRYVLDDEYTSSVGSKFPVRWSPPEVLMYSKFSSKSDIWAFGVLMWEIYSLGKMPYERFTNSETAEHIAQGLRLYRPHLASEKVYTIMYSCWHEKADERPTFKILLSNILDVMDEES

Compound: N-(3-(5-fluoro-2(3,4,5-trimethoxyphenylamino)pyrimidin-4-yloxy)phenyl)acrylamide [Compound I-148]
- IC50 (EGFR-WT; [1]): 1000 to 10000 nM
- IC50 (BTK): 1000 to 10000 nM

Compound: C=CC(=O)Nc1cccc(Nc2nc(Nc3ccc(OC(C)(C)CO)cc3)ncc2F)c1 [Compound I-93, N-(3-(5-fluoro-2-(4-(1-hydroxy-2-methylpropan-2-yloxy)phenylamino)pyrimidin-4-ylamino)phenyl)acrylamide]
- IC50 (EGFR-WT): 10 to 100 nM
- IC50 (BTK): < 10 nM

Compound: C=CC(=O)Nc1cccc(Nc2nc(Nc3ccc(OCCN4CCCC4=O)cc3)ncc2F)c1 [Compound I-92, N-(3-(5-fluoro-2-(4-(2-(2-oxopyrrolidin-1-yl)ethoxy)phenylamino)pyrimidin-4-ylamino)phenyl)acrylamide]
- IC50 (EGFR-WT): 10 to 100 nM
- IC50 (BTK): < 10 nM

Compound: C=CC(=O)N1CCCC(Oc2nc(Nc3ccc(OC)nc3)ncc2F)C1 (stereo not drawn) [Compound I-191]
- IC50 (EGFR-WT; [1]): 1000 to 10000 nM
- IC50 (BTK): < 10 nM

Compound: C=CC(=O)Nc1cccc(Oc2nc(Nc3cccc(OCC4CCCN(C)C4)c3)ncc2F)c1 (stereo not drawn) [Compound I-81, N-(3-(5-fluoro-2-(3-((1-methylpiperidin-3-yl)methoxy)phenylamino)pyrimidin-4-yloxy)phenyl)acrylamide]
- IC50 (EGFR-WT; [1]): < 10 nM
- IC50 (BTK): < 10 nM

Compound: C=CC(=O)Nc1cccc(Nc2nc(Nc3ccc(Cl)c(O[C@H](C)CO)c3)ncc2F)c1 [Compound I-358, (R)—N-(3-(2-(4-chloro-3-(1-hydroxypropan-2-yloxy)phenylamino)-5-fluoropyrimidin-4-ylamino)phenyl)acrylamide]
- IC50 (EGFR-WT): 100 to 1000 nM
- IC50 (BTK): < 10 nM

Compound: C=CC(=O)N1CCC[C@@H](Nc2nc(Nc3ccc(OCCOC)c(F)c3)ncc2F)C1 [Compound I-344]
- IC50 (EGFR-WT): 100 to 1000 nM
- IC50 (BTK): < 10 nM

Compound: C=CC(=O)N(C)Cc1ccc(Nc2nc(Nc3cccc(OC)c3)ncc2F)cc1 [Compound I-113, N-(4-(5-fluoro-2-(3-methoxyphenylamino)pyrimidin-4-ylamino)benzyl)-N-methylacrylamide]
- IC50 (EGFR-WT): 100 to 1000 nM
- IC50 (BTK): < 10 nM

Compound: C=CC(=O)Nc1cccc(Oc2nc(Nc3cccc(N4CCN(CCO)CC4)c3)ncc2F)c1 [Compound I-84, N-(3-(5-fluoro-2-(3-(4-(2-hydroxyethyl)piperazin-1-yl)phenylamino)pyrimidin-4-yloxy)phenyl)acrylamide]
- IC50 (EGFR-WT; [1]): < 10 nM
- IC50 (BTK): < 10 nM

Compound: C=CC(=O)Nc1cccc(Nc2ncc(F)c(Oc3ccc(Oc4ccccc4)cc3)n2)c1 [Compound I-212]
- IC50 (EGFR-WT; [1]): 1000 to 10000 nM
- IC50 (BTK): 1000 to 10000 nM

Compound: C=CC(=O)Nc1cccc(Nc2nc(Nc3ccc4c(c3)N(C(C)=O)CCO4)ncc2F)c1 [Compound I-112, N-(3-(2-(4-acetyl-2,3-dihydrobenzo[1,4]oxazin-6-yl)amino-5-fluoropyrimidin-4-ylamino)phenyl)acrylamide]
- IC50 (EGFR-WT): 10 to 100 nM
- IC50 (BTK): < 10 nM

Compound: C=CC(=O)Nc1cccc(Nc2nc(Nc3cccc(OCC(O)CO)c3)ncc2F)c1 (stereo not drawn) [Compound I-339, N-(3-(2-(3-(2,3-dihydroxypropoxy)phenylamino)-5-fluoropyrimidin-4-ylamino)phenyl)acrylamide]
- IC50 (EGFR-WT; [1]): < 10 nM
- IC50 (BTK): < 10 nM

Compound: 4-(4-(4-(3-acrylamidophenylamino)-5-fluoropyrimidin-2-ylamino)phenoxy) pyridine [Compound I-346]
- IC50 (EGFR-WT; [1]): 100 to 1000 nM
- IC50 (BTK): < 10 nM

Compound: C/C=C/C(=O)OCc1cccc(Nc2nc(Nc3ccccc3)ncc2C)c1 [Compound I-246, (E)-3-(5-methyl-2-(phenylamino)pyrimidin-4-ylamino) benzyl but-2-enoate]
- IC50 (EGFR-WT; [1]): 1000 to 10000 nM
- IC50 (BTK): 10 to 100 nM

Compound: C=CC(=O)NCc1cccc(Nc2nc(Nc3ccccc3)ncc2C)c1 [Compound I-205, N-(3-(5-methyl-2-(phenylamino)pyrimidin-4-ylamino)benzyl)acrylamide]
- IC50 (EGFR-WT): 10 to 100 nM
- IC50 (BTK): 10 to 100 nM

Compound: C=CC(=O)Nc1cccc(Nc2nc(Nc3ccc(OCC(O)CO)c(F)c3)ncc2F)c1 (stereo not drawn) [Compound I-334, N-(3-(2-(4-(2,3-dihydroxypropoxy)-3-fluorophenylamino)-5-fluoropyrimidin-4-ylamino)phenyl)acrylamide]
- IC50 (EGFR-WT; [1]): < 10 nM
- IC50 (BTK): < 10 nM

Compound: C=CC(=O)Nc1ccc(Nc2nc(Nc3cncc(OC)c3)ncc2C(F)(F)F)cc1 [Compound I-214, N-(4-(5-trifluoromethyl-2-(5-methoxypyridin-3-ylamino)pyrimidin-4-ylamino)phenyl)acrylamide]
- IC50 (EGFR-WT): 100 to 1000 nM
- IC50 (BTK): 10 to 100 nM

Compound: C=CC(=O)Nc1cccc(Nc2nc(Nc3ccc4c(c3)OCCO4)ncc2F)c1 [Compound I-349]
- IC50 (EGFR-WT): 10 to 100 nM
- IC50 (BTK): < 10 nM

Compound: CC(C)=CC(=O)c1cccc(Nc2nc(Nc3cccc(OC(F)(F)F)c3)ncc2F)c1 [Compound I-223, 1-(3-(5-fluoro-2-(3-(trifluoromethoxy)phenylamino)pyrimidin-4-ylamino)phenyl)-3-methylbut-2-en-1-one]
- IC50 (EGFR-WT; [1]): 1000 to 10000 nM
- IC50 (BTK): > 10000 nM

Compound: CC(C)=CC(=O)c1cccc(Nc2nc(Nc3cccc(S(N)(=O)=O)c3)ncc2C)c1 [Compound I-224, 1-(3-(5-methyl-2-(3-aminosulfonylphenylamino)pyrimidin-4-ylamino)phenyl)-3-methylbut-2-en-1-one]
- IC50 (EGFR-WT): 100 to 1000 nM
- IC50 (BTK): 10 to 100 nM

Compound: COCCN(C)C/C=C/C(=O)Nc1cccc(Nc2ncc(F)c(Nc3cccc(C)c3)n2)c1 [Compound I-120, (E)-N-(3-(5-fluoro-4-(m-tolylamino)pyrimidin-2-ylamino)phenyl)-4-((2-methoxyethyl)(methyl)amino)but-2-enamide]
- IC50 (EGFR-WT; [1]): < 10 nM
- IC50 (BTK): < 10 nM

Compound: C=CC(=O)Nc1cccc(Nc2nc(NC3CCCN(C(C)=O)C3)ncc2F)c1 (stereo not drawn) [Compound I-238, N-(3-(2-(1-acetylpiperidin-3-ylamino)-5-fluoropyrimidin-4-ylamino)phenyl)acrylamide]
- IC50 (EGFR-WT; [1]): > 10000 nM
- IC50 (BTK): 1000 to 10000 nM

Compound: C=CC(=O)Nc1cccc(N(C(=O)C=C)c2nc(Nc3ccc(OC)nc3)ncc2C#N)c1 [Compound I-171, N-(3-acrylamidophenyl)-N-(5-cyano-2-(6-methoxypyridin-3-ylamino)pyrimidin-4-yl)acrylamide]
- IC50 (EGFR-WT): 10 to 100 nM
- IC50 (BTK): < 10 nM

Compound: C=CC(=O)N1Cc2ccc(Nc3nc(Nc4cccc(OC)c4)ncc3C(F)(F)F)cc2C1 [Compound I-132, 1-(5-(5-trifluoromethyl-2-(3-methoxyphenylamino)pyrimidin-4-yl)amino-1,3-dihydroisoindol-2-yl)2-propen-1-one]
- IC50 (EGFR-WT): 10 to 100 nM
- IC50 (BTK): < 10 nM

Compound: C=CC(=O)Nc1cccc(Nc2nc(Nc3cccc(OCC4CCN(C)CC4)c3)ncc2F)c1 [Compound I-82, N-(3-(5-fluoro-2-(3-((1-methylpiperidin-4-yl)methoxy)phenylamino)pyrimidin-4-ylamino)phenyl)-acrylamide]
- IC50 (EGFR-WT; [1]): < 10 nM
- IC50 (BTK): < 10 nM

Compound: C=CC(=O)Nc1cccc(Nc2nc(Nc3ccc(OCC(O)CO)cc3)ncc2F)c1 (stereo not drawn) [Compound I-335, N-(3-(2-(4-(2,3-dihydroxypropoxy)phenylamino)-5-fluoropyrimidin-4-ylamino)phenyl)acrylamide]
- IC50 (EGFR-WT; [1]): < 10 nM
- IC50 (BTK): < 10 nM

Compound: C=CC(=O)N1CCC[C@@H](Sc2nc(Nc3cccc(OC)c3)ncc2F)C1 [Compound I-137, (R)-1-(3-(5-fluoro-2-(3-methoxyphenylamino)pyrimidin-4-ylthio)piperidin-1-yl)prop-2-en-1-one]
- IC50 (EGFR-WT; [1]): > 10000 nM
- IC50 (BTK): 100 to 1000 nM
